“Also recorded” adds a separate entry of the source. Where two headings read alike, the source gives them in different places.
Tests used:
[1] = tested on: Jurkat; type: cell-based, human
Description: (§1) The extent to which the T cells were being killed by BMLOV treatment relative to the Ramos B cells was therefore examined. […] The percentage of cells in each quadrant is indicated. The lower right quadrant contains the viable cells.

[2] = tested on: CEM; type: cell-based, human
Description: as §1

[3] = tested on: Jurkat; test: Anti-phosphotyrosine immunoblot; type: cell-based, human
[4] = tested on: A20; test: [3H]thymidine incorporation assay; type: cell-based, murine; details: for [3H]-thymidine radioactivity incorporated: 5 days; for [3H]cpm incorporation: seven days
Procedure: (§2) For each cell type, the cells were passaged uniformly for all drug doses given during the seven-day period. The cells were then pulsed for six hours with [^3 H]thymidine. The extent of DNA synthesis was then determined by counting the radioactivity incorporated into the cells.
(§3) For assays of cellular proliferation, cells were grown five days in the presence of the indicated concentrations of BMLOV, pulsed 6 hr with [^3 H]-thymidine (New England Nuclear, Boston, Mass.), and counted in a liquid scintillation counter. Human peripheral blood lymphocytes (PBL) from normal volunteers were isolated from lymphocyte separation medium (Litton Bionetics, Kensington, Md.) by density gradient centrifugation. Monocytes were depleted from PBL by two rounds of plastic absorption for 30 minutes at 37° C. B cells were enriched for by negative selection using complement plus monoclonal antibodies to CD2, CD3, CD4, and CD8 for complement depletion. Clonogenic assays of colony formation in methylcellulose medium were performed as previously described (F. M. Uckun et al. (1992), supra).
The cell lines A20, 70Z-3, L1210, and P388D were used. A20 is a B cell lymphoma cell line; 70Z/3 is a B cell leukemia cell line; L1210 is a T cell leukemia cell line; and P388D is a myeloid leukemia cell line. The cells were grown for 5 days in the presence of pV(phen) and pulsed with [^3 H]-thymidine on day 5. The extent of DNA synthesis was then determined by counting the radioactivity incorporated into the cells, as in Example 5, supra. […] The effects on L1210 cells and P388D cells are particularly noteworthy because these cell lines have been extensively used by the National Cancer Institute to identify anti-cancer drugs.

[5] = tested on: Ramos cells; test: Anti-phosphotyrosine western blot of cell lysates; type: cell-based, human
[6] = tested on: Ramos; test: [3H]thymidine incorporation assay; type: cell-based, human; details: for [3H]cpm incorporation: seven days
Procedure: as §2, §3
The effect of the variation of treatment time with pV(phen) on the inhibition of proliferation in Ramos cells is shown in Table 11. These cells were grown in pV(phen) for the indicated times, washed, and then grown in fresh media for the balance of the 5-day assay. These cells were pulsed with [^3 H]-thymidine on day 5.

[7] = tested on: Syk tyrosine kinase; test: Syk tyrosine phosphorylation (anti-Syk immunoprecipitate, anti-phosphotyrosine blot) in Ramos B cells; type: cell-based, human; details: 16 hours, no antigen receptor stimulation
Procedure: BMLOV is known to inhibit Src-family tyrosine kinases. […] Ramos B cells were treated with the indicated concentrations of BMLOV or pV(phen) for 16 hours. The cells were then lysed and the Syk tyrosine kinase was immunoprecipitated with anti-Syk antibodies. The tyrosine phosphorylation of Syk was examined by an anti-phosphotyrosine Western blot of the immunoprecipitated Syk protein following SDS-polyacrylamide gel electrophoresis (shown at left). The amount of Syk protein recovered was determined by anti-Syk Western blotting of identical samples (shown at right).
In the experiments shown in FIG. 23, cells were treated 16 h with BMLOV and then stimulated with α-μ for 5 min. Cells were then washed and resuspended in fresh media at equal concentrations of BMLOV at 37° C. Cells were harvested and lysted at times following the initiation of α-μ stimulation as indicated. Antibody binding in immunoblots was detected by ECL.

[8] = tested on: normal peripheral blood T cells
Procedure: IL-2Rα expression was analyzed by flow cytometry after staining the cells with fluorescein-labeled anti-CD25. Cells not receiving any treatment are shown by the shaded profile, (- - -) 25 μM BMLOV only; (-) G19-4 only; (. . . ) G19-4 plus BMLOV. In Panel A, no IL-2 was added; in Panel B, incubations were performed with 1 ng/ml IL-2.

[9] = tested on: H3347 carcinoma cells; test: Anti-phosphotyrosine immunoblot; type: cell-based, human
[10] = tested on: normal tonsillar B cells; test: Normal tonsillar B cell proliferation; type: cell-based
Description: BMLOV can inhibit normal tonsillar B cell proliferation driven by stimulation of CD40 via either anti-CD40 antibody or gp39 ligand plus either anti-CD20 antibody or phorbol 12-myristate 13-acetate (PMA). […] Variations between the individuals from which the tonsils were derived could account for the differences between these experiments.

[11] = Tolerability of BMLOV in mice; type: in vivo
[12] = tested on: pp60^c-src; test: pp60c-src kinase activity in colon carcinoma cell lines; type: cell-based; details: two colon carcinoma cell lines expressing Src; dose-dependent
Description: Many colon carcinomas are known to express the Src oncogene product at high levels.

[13] = tested on: PP1; test: Serine/threonine phosphatase PP1 inhibition; type: biochemical; details: vs CD45 and PTP1B
[14] = tested on: BCL1; test: [3H]thymidine incorporation assay; type: cell-based, murine; details: for [3H]cpm incorporation: seven days
Procedure: as §2, §3

[15] = peripheral blood t cells, 24 h, 25 µM

Structure (SMILES): [Na+].[O]=[V-]12([O][O]1)[O][O]2.c1cnc2c(c1)ccc1cccnc12 [pV(phen), sodium (1,10-phenanthroline) oxodiperoxovanadium (V)]
- cells killed ([1]; Jurkat, 10 μM pV(phen), three days): all the cells
- cells killed ([1]; human, jurkat cells, 48 h, 10 µM): 98%
- cells killed ([2]; CEM, 10 μM pV(phen), three days): all the cells
- cells killed ([2]; human, cem cells, 48 h, 10 µM): 98%
- induction of tyrosine phosphorylation by pV(phen) ([3]; Jurkat T cells, 16 hours): high level of tyrosine phosphorylation
- [3H]-thymidine radioactivity incorporated ([4]; 5 μM pV(phen)): 73 ± 23
- [3H]-thymidine radioactivity incorporated ([4]; 10 μM pV(phen)): 76 ± 48
- proteins tyrosine phosphorylated, compared with BMLOV ([5]; 16 hours, particularly at 10 μM): causes the tyrosine phosphorylation of a significantly larger group of proteins than does BMLOV
- induction of tyrosine phosphorylation by pV(phen) ([5]; Ramos B cells, 16 hours): high level of tyrosine phosphorylation
- [3H] Thymidine Incorporation ([6]; 1 μM pV(phen) for 4 hr, then fresh media to day 5): 540438 ± 86014 cpm
- [3H] Thymidine Incorporation ([6]; 1 μM pV(phen) for 8 hr, then fresh media to day 5): 444806 ± 20361 cpm
- [3H] Thymidine Incorporation ([6]; 1 μM pV(phen) for 24 hr, then fresh media to day 5): 396533 ± 16116 cpm
- [3H] Thymidine Incorporation ([6]; 1 μM pV(phen) for 5 d): 1969 ± 1295 cpm
- inhibition of proliferation ([6]; 1 μM pV(phen), full 5-day treatment): ≥ 99%
- [3H] Thymidine Incorporation ([6]; 5 μM pV(phen) for 4 hr, then fresh media to day 5): 502956 ± 20963 cpm
- [3H] Thymidine Incorporation ([6]; 5 μM pV(phen) for 8 hr, then fresh media to day 5): 351849 ± 7357 cpm
- [3H] Thymidine Incorporation ([6]; 5 μM pV(phen) for 24 hr, then fresh media to day 5): 312 ± 83 cpm
- [3H] Thymidine Incorporation ([6]; 5 μM pV(phen) for 5 d): 615 ± 268 cpm
- [3H] Thymidine Incorporation ([6]; 10 μM pV(phen) for 4 hr, then fresh media to day 5): 554511 ± 10077 cpm
- [3H] Thymidine Incorporation ([6]; 10 μM pV(phen) for 8 hr, then fresh media to day 5): 185021 ± 11112 cpm
- [3H] Thymidine Incorporation ([6]; 10 μM pV(phen) for 24 hr, then fresh media to day 5): 1862 ± 1461 cpm
- [3H] Thymidine Incorporation ([6]; 10 μM pV(phen) for 5 d): 982 ± 519 cpm
- [3H] Thymidine Incorporation ([6]; 25 μM pV(phen) for 4 hr, then fresh media to day 5): 433034 ± 74272 cpm
- [3H] Thymidine Incorporation ([6]; 25 μM pV(phen) for 8 hr, then fresh media to day 5): 877 ± 93 cpm
- [3H] Thymidine Incorporation ([6]; 25 μM pV(phen) for 24 hr, then fresh media to day 5): 399 ± 231 cpm
- [3H] Thymidine Incorporation ([6]; 25 μM pV(phen) for 5 d): 651 ± 295 cpm
- tyrosine phosphorylation of Syk [7]: strongly induces tyrosine phosphorylation of the Syk tyrosine kinase

Structure (SMILES): Cc1occc(=O)c1[O-].Cc1occc(=O)c1[O-].[O]=[V+2] [BMLOV, Bis(maltolato)oxovanadium (IV)]
- killing by BMLOV, in words ([2]; CEM, 25 μM BMLOV, 4 days): resistant to killing
- induction of tyrosine phosphorylation ([3]; 16 hr): only low levels of tyrosine phosphorylation
- [3H]cpm incorporation ([4]; 1 μM BMLOV): 419947 cpm
- [3H]cpm incorporation ([4]; 5 μM BMLOV): 289932 cpm
- [3H]cpm incorporation ([4]; 10 μM BMLOV): 66157 cpm
- [3H]cpm incorporation ([4]; 25 μM BMLOV): 281 cpm
- sensitivity of proliferation to BMLOV, in words ([4]; 25 μM, 5 or 7 days): very sensitive; also recorded: highly sensitive
- level of tyrosine phosphorylation ([5]; 50 μM BMLOV, 16 hours): high levels of tyrosine phosphorylation
- time at which tyrosine phosphorylation begins ([5]; 100 μM BMLOV): ≤ 8 min
- induction of tyrosine phosphorylation compared with sodium orthovanadate ([5]; 100 μM each, 30 min): more potent than orthovanadate
- induction of cellular tyrosine phosphorylation ([5]; Ramos B cells, varying doses, 1 hour or 16 h): induces tyrosine phosphorylation in a dose-dependent manner; also recorded: dose-dependent induction of tyrosine phosphorylation
- tyrosine phosphorylation response to sIg crosslinking ([5]; particularly at early time points): enhanced the tyrosine phosphorylation response
- IL-2Rα expression without anti-CD3 stimulation ([8]; BMLOV alone or in combination with IL-2): did not induce IL-2Rα expression
- enhancement of IL-2Rα expression over anti-CD3 and IL-2 [8, 15]: 3 fold
- increase of IL-2Rα expression over anti-CD3 stimulation alone [8, 15]: 1.7 fold
- [3H]cpm incorporation ([6]; 1 μM BMLOV): 289936 cpm
- [3H]cpm incorporation ([6]; 5 μM BMLOV): 65545 cpm
- [3H]cpm incorporation ([6]; 10 μM BMLOV): 167 cpm
- [3H]cpm incorporation ([6]; 25 μM BMLOV): 149 cpm
- sensitivity of proliferation to BMLOV, in words ([6]; 10 and 25 μM, 5 or 7 days): highly sensitive
- induction of tyrosine phosphorylation [9]: weakly induce tyrosine phosphorylation
- effect on proliferation ([10]; first experiment (FIG. 3), 0.1 to 10 μM BMLOV): little effect on proliferation
- effect on proliferation ([10]; second experiment (FIG. 4), 5 μM BMLOV): substantial inhibition of proliferation
- effect on proliferation ([10]; second experiment (FIG. 4), 50 μM BMLOV): completely blocked proliferation
- tolerability ([11]; 1.6 mM BMLOV in drinking water continuously for 10 days): no overt ill effects
- tolerability ([11]; intraperitoneal doses up to 1 mg and oral doses up to 1.6 mg): without ill effects except for some temporary lethargy
- tyrosine phosphorylation of Syk [7]: only very slight tyrosine phosphorylation of Syk; also recorded: induced tyrosine phosphorylation of Syk in a dose-dependent manner
- pp60c-src activity [12]: strongly inhibited
- concentration for similar inhibition relative to phosphotyrosine phosphatases [13]: over 100 fold
- [3H]cpm incorporation ([14]; 1 μM BMLOV): 265036 cpm
- [3H]cpm incorporation ([14]; 5 μM BMLOV): 226714 cpm
- [3H]cpm incorporation ([14]; 10 μM BMLOV): 55396 cpm
- [3H]cpm incorporation ([14]; 25 μM BMLOV): 195 cpm
- sensitivity of proliferation to BMLOV, in words ([14]; 25 μM, 5 or 7 days): highly sensitive

From US5877210A, “Phosphotyrosine phosphatase inhibitors or phosphotyrosine kinase activators for controlling cellular proliferation” (priority 1995, dated 1999)
